Experimental data from patent US6878716B1, “Compounds specific to adenosine A1 receptor and uses thereof” (OSI Pharmaceuticals, Inc., priority 1998, dated 2005).
Like-named read-outs stand apart in the source and are kept apart here.

Tests used:
A1 adenosine receptor = molecular target: T1, A1 adenosine receptor (Homo sapiens, UniProt P30542); conditions: reported value; cited from earlier work
T1 sequence (P30542 1-326): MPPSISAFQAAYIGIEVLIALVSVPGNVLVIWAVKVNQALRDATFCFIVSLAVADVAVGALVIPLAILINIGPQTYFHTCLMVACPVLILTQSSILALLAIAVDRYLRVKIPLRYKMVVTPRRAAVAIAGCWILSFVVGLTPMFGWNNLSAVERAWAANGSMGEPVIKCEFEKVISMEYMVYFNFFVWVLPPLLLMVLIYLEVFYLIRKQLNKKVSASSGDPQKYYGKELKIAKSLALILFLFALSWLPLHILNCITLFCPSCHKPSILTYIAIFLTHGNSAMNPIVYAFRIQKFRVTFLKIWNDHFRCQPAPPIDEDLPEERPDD

[1] = molecular target: T2, human adenosine A1 receptor (Homo sapiens, UniProt P30542); assay: Yeast β-Galactosidase reporter gene assay, inhibition of NECA-induced activity (strain CY12660)
T2 sequence (P30542 1-326): T1 sequence (P30542 1-326)

[2] = molecular target: T3, human A1 receptor subtype (Homo sapiens, UniProt P30542); assay: biochemical
T3 sequence (P30542 1-326): T1 sequence (P30542 1-326)

[3] = molecular target: T4, human A2a receptor subtype (Homo sapiens, UniProt P29274); assay: Adenosine 2a receptor subtype competition radioligand binding ([3H]CGS-21680, HEK293 membranes); conditions: Table 13, % value; footnote 8: % activity @ 10 μM
T4 construct: expressed in transfected cells; host or cells: HEK-293 (Cadus clone # 5)

[4] = molecular target: T3, human A1 receptor subtype; conditions: Table 13, % value; footnote 8: % activity @ 10 μM
[5] = read-out: A1 Yeast IC50, Table 10

T4 sequence (P29274 whole entry): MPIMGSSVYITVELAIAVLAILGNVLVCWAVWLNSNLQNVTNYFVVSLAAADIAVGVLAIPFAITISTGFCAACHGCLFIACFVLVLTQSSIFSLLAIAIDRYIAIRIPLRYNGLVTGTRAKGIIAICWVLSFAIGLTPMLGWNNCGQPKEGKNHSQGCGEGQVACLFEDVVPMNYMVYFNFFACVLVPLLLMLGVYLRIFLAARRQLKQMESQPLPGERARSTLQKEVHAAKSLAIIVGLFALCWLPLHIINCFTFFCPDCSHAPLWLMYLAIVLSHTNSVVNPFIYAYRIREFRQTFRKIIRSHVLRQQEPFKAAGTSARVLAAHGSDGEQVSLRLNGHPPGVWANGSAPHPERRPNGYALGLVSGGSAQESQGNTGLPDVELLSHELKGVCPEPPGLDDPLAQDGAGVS

IC50 [1, 5] | Compound | A2a % activity [3] | further results
 | C[C@H](Cc1ccccc1)Nc1ncnc2c1ncn2[C@@H]1O[C@H](CO)[C@@H](O)[C@H]1O (single isomer, unassigned) [R-PIA, (−)-N6-(2-phenylisopropyl)-adenosine] |  | affinity (reported) (A1 adenosine receptor): approximately 50 nM
> 10 µM | Cc1[nH]c2nc(-c3ccccc3)nc(NCCNS(C)(=O)=O)c2c1C [Compound 1007] |  | 
> 10 µM | Cc1[nH]c2nc(-c3ccccc3)nc(NCCNC(=O)CCN)c2c1C [Compound 1009] |  | 
 | CCC(=O)NCCCNc1nc(-c2ccccc2)nc2[nH]c(C)c(C)c12 [Compound 1012] |  | IC50 [1]: 3.46 µM; Ki [2]: 0.234 µM
 | CNC(=O)NCCCNc1nc(-c2ccccc2)nc2[nH]c(C)c(C)c12 [Compound 1310] | 76% | 
 | Cc1[nH]c2nc(-c3ccccc3)nc(NCCNC(=O)C3(N)CC3)c2c1C [Compound 1313] | 65% | A1 % activity [4]: 30%
